Reference: ChEMBL document CHEMBL5634144, “Design, synthesis and biological evaluation of novel DCLK1 inhibitor containing purine skeleton for the treatment of pancreatic cancer” (Eur J Med Chem, 2023)
The source made the active and inactive calls. No cut-off for these calls is given here.

What was measured:
SW1990 [1] = test: Antitumor activity against human SW1990 cells xenografted in BALB/c nude mouse model assessed as tumor growth inhibition treated intraperitoneally for 21 days consecutively; format: functional; settings: dose 30-60 mg/kg, route ip, time 21.0 day
SW1990 [2] = test: Antitumor activity in human SW1990 cells assessed as decrease in CD44 level at 0.5 to 2 uM by immunofluorescence based analysis; format: functional, cell-based; settings: dose 0.5-2 µM
SW1990 [3] = test: Induction of cell cycle arrest at S phase in human SW1990 cells at 2 uM incubated for 6 days by PI staining based flow cytometry (reference value: 21.20 %); format: functional; settings: time 6 day
SW1990 [4] = test: Induction of cell cycle arrest at G2/M phase in human SW1990 cells at 0.5 uM incubated for 6 days by PI staining based flow cytometry (reference value: 29.15 %); format: functional; settings: time 6 day
SW1990 [5] = test: Induction of cell cycle arrest at S phase in human SW1990 cells at 1 uM incubated for 6 days by PI staining based flow cytometry (reference value: 21.20 %); format: functional; settings: time 6 day
SW1990 [6] = test: Induction of apoptosis in human SW1990 cells assessed as viable cells at 1 uM incubated for 6 days by Annexin V/PI staining based flow cytometry (reference value: 92.93 %); format: functional; settings: SW1990, 144 h, time 6 day, read-out: Activity
SW1990 [7] = test: Antitumor activity against human SW1990 cells xenografted in BALB/c nude mouse model assessed as change in nuclear chromatin marginalization treated intraperitoneally for 21 days consecutively by H and E staining based analysis; format: functional; settings: dose 30-60 mg/kg, route ip, time 21.0 day
SW1990 [8] = test: Potency index, ratio of DCLK1-IN-1 IC50 to test compound IC50 for human SW1990 cells assessed as inhibition cell proliferation incubated for 6 days by MTT assay; format: functional; settings: time 6 day
SW1990 [9] = test: Induction of apoptosis in human SW1990 cells assessed as viable cells at 2 uM incubated for 6 days by Annexin V/PI staining based flow cytometry (reference value: 92.93 %); format: functional; settings: SW1990, 144 h, time 6 day, read-out: Activity
SW1990 [10] = test: Induction of apoptosis in human SW1990 cells assessed as early apoptotic cells at 1 uM incubated for 6 days by Annexin V/PI staining based flow cytometry (reference value: 4.55 %); format: functional; settings: time 6 day
SW1990 [11] = test: Inhibition of cell invasion in human SW1990 cells at 0.5 to 2 uM by transwell assay; format: functional, cell-based; settings: dose 0.5-2 µM
SW1990 [12] = test: Antitumor activity against human SW1990 cells xenografted in BALB/c nude mouse model assessed as increase in E-cadherin level at 30 to 60 mg/kg, ip for 21 days consecutively by Western blot analysis; format: functional, organism-based; settings: dose 30-60 mg/kg, time 21.0 day
SW1990 [13] = test: Induction of apoptosis in human SW1990 cells assessed as viable cells at 0.5 uM incubated for 6 days by Annexin V/PI staining based flow cytometry (reference value: 92.93 %); format: functional; settings: SW1990, 144 h, time 6 day, read-out: Activity
SW1990 [14] = test: Antitumor activity against human SW1990 cells xenografted in BALB/c nude mouse model assessed as tumor growth inhibition at 60 mg/kg, ip for 21 days consecutively relative to control; format: functional; settings: SW1990, 504 h, time 21 day, read-out: TGI
SW1990 [15] = test: Induction of cell cycle arrest at S phase in human SW1990 cells at 0.5 uM incubated for 6 days by PI staining based flow cytometry (reference value: 21.20 %); format: functional; settings: time 6 day
[16] = Toxicity in BALB/c nude mouse xenografted with human SW1990 cells assessed as animal mortality at 30 to 60 mg/kg, ip for 21 days consecutively; format: organism-based; settings: in vivo, 504 h, dose 30-60 mg/kg, time 21 day
SW1990 [17] = test: Induction of apoptosis in human SW1990 cells assessed as necrotic cells at 2 uM incubated for 6 days by Annexin V/PI staining based flow cytometry (reference value: 0.50 %); format: functional; settings: time 6 day
[18] = Metabolic stability in mouse liver microsomes assessed as half life at 1 uM preincubated for 10 mins followed by NADPH measured for 60 mins by LC-MS/MS analysis; format: ADME, Microsome; settings: time 70 min
SW1990 [19] = test: Inhibition of colony formation of human SW1990 cells at 2 uM incubated for 6 days by crystal violet staining based analysis; format: functional, cell-based; settings: time 6.0 day
SW1990 [20] = test: Induction of apoptosis in human SW1990 cells assessed as early apoptotic cells at 0.5 uM incubated for 6 days by Annexin V/PI staining based flow cytometry (reference value: 4.55 %); format: functional; settings: time 6 day
SW1990 [21] = test: Induction of cell cycle arrest at G2/M phase in human SW1990 cells at 1 uM incubated for 6 days by PI staining based flow cytometry (reference value: 29.15 %); format: functional; settings: time 6 day
[22] = Metabolic stability in mouse liver microsomes assessed as intrinsic clearance at 1 uM preincubated for 10 mins followed by NADPH measured for 60 mins by LC-MS/MS analysis; format: ADME, Microsome; settings: time 70 min, read-out: CLH
SW1990 [23] = test: Induction of apoptosis in human SW1990 cells assessed as necrotic cells at 0.5 uM incubated for 6 days by Annexin V/PI staining based flow cytometry (reference value: 0.50 %); format: functional; settings: time 6 day
SW1990 [24] = test: Induction of apoptosis in human SW1990 cells assessed as late apoptotic cells at 0.5 uM incubated for 6 days by Annexin V/PI staining based flow cytometry (reference value: 2.01 %); format: functional; settings: time 6 day

## COc1cc(N2CCN(C)CC2)ccc1Nc1nc(Nc2ccccc2S(=O)(=O)C(C)C)c2nc[nH]c2n1
SW1990 [1]
  inhibition: Dose-Dependent Effect
SW1990 [2]
  Activity: Active
SW1990 [3]
  Activity: 14.23%
SW1990 [4]
  Activity: 27.55%
SW1990 [5]
  Activity: 19.75%
SW1990 [6]
  viability at 1 µM: 65.3%
SW1990 [7]
  Activity: Dose-Dependent Effect
SW1990 [8]
  Ratio IC50: 22
SW1990 [9]
  viability at 2 µM: 61%
SW1990 [10]
  Activity: 19.46%
SW1990 [11]
  inhibition: Active
SW1990 [12]
  Activity: Active
SW1990 [13]
  viability at 0.5 µM: 78.5%
SW1990 [14]
  inhibition in vivo at 60 mg/kg: 68.6%
SW1990 [15]
  Activity: 19.66%
[16]
  Activity: Non-Toxic
SW1990 [17]
  Activity: 5.86%
[18]
  half-life at 1 µM: 45.9 min
SW1990 [19]
  inhibition: Active
SW1990 [20]
  Activity: 9.19%
SW1990 [21]
  Activity: 23.47%
[22]
  CLint scaled at 1 µM: 120 mL/min/kg
  microsomal CLint at 1 µM: 30.2 µL/min/mg
SW1990 [23]
  Activity: 5.58%
SW1990 [24]
  Activity: 6.77%
